Experimental findings from patent US20090203685A1, “ANTI-PROLIFERATIVE COMPOUNDS FROM A 3-ARYL-COUMARINE OR 3-ARYL-QUINOLIN-2-ONE AND USES THEREOF” (EOS (ETHICAL ONCOLOGY SCIENCE) S.P.A., priority 2006, published 2009) are described below.

Assay [1] concerns lung, prostate, breast, colon, melanoma, and myeloid tumor cells. Put plainly: Inhibition of cell proliferation in vitro, panel of tumor cells (Example 3). The format is cell-based. The conditions noted are these: Homo sapiens; range over tumor cell lines, printed as 50 nM to 1 μM; 72 h; read-out: IC50s of growth inhibition. As to the method:
2C Proliferation test ViaLight® HS High Sensitivity Cytotoxicity and Cell Proliferation BioAssay Kit
This protocol allows the determination of the cytostatic and cytotoxic activities of compounds to be tested on mammalian cells in culture and was carried out essentially according to the manufacturer's recommendations.
Cells are suspended in 15 mL of their respective media and are enumerated. They are then diluted in their media in order to obtain: • 2500 cells per 90 μL per well for MRC5 cells • 5000 cells per 90 μL per well for all other cell lines. Cells are then seeded in a 96 well plate, and incubated at least 4 hours in the incubator at 37° C. in 5% CO2. […]
Then, 100 μL of test buffer (test Vialight® test buffer) is added in each well and the control plate is incubated during 2 minutes. The luminescence is read in each well. The mean luminescence for each type of cells is called T0. […]
Then, 100 μL of test buffer (test Vialight® test buffer) is added in each well and the plates are incubated during 2 minutes. The luminescence is read in each well. For each type of cell, the mean luminescence in the well not containing the compound is called C72 and the mean luminescence in well containing a given concentration of a compound to be tested is called T72. […]

The test system of assay [2] is human lung cancer NCI-H460 cells (NSCLC). Put plainly: Inhibition of tumor growth in vivo, NCI-H460 xenograft. On the set-up: species or system Swiss nude mice. Here is the method:
FIG. 2: Inhibition of tumor growth in vivo.
This graph represents the growth of tumor size (by reference to the initial size of the tumor) grafted to mice receiving different treatments during 15 days.
Rhombus: evolution of the growth of the tumor measured in mice receiving the vehicle (without active ingredient) intra-peritoneally (2QD)
Triangle: evolution of the growth of the tumor measured in mice receiving the compound (01) intra-peritoneally at a dosage of 18 mg/kg (2QD).
Circle: evolution of the growth of the tumor measured in mice receiving taxol intra-peritoneally at 8 mg/kg (Q3D×5; d1; d4; d7; d10; d13).
Cross: evolution of the growth of the tumor measured in mice receiving a combination of compound (01) at a dosage of 18 mg/kg 2QD and taxol at a dosage of 8 mg/kg Q3D×5 intra-peritoneally.
For this experiment, Swiss nude mice received a subcutaneous xenograft of 5×10^6 human lung cancer NCI-H460 cells (NSCLC). The percentage of growth of the tumor size versus tumor size at the beginning of treatment is plotted during 15 days for mice receiving four different treatments (12 mice per group of treatment).
The first treatment corresponds to a control. The mice were given the vehicule intra-peritoneally, 2QD.
Composition of the vehicule: 10% DMSO; 10% PEG-400; 30% (EtOH/Cremophor (1/2)); 50% sterile water.
The second treatment corresponds to the administration of a compound of the invention, compound (01), at a dosage of 18 mg/kg 2QD.
The third treatment corresponds to the administration of Taxol at a dosage of 8 mg/kg Q3D×5; d1; d4; d7; d10; d13.
The fourth treatment corresponds to the administration of a combination of compound (01) at a dosage of 18 mg/kg 2QD and of Taxol at a dosage of 8 mg/kg Q3D×5.

`COc1cc(NC(=S)NC(=O)/C=C/c2ccco2)ccc1-c1cc2ccccc2oc1=O` [Compound 01, (2E)-3-(2-furyl)-N-({[3-methoxy-4-(2-oxo-2H-chromen-3-yl)phenyl]amino}carbonothioyl)acrylamide]: the IC50 in assay [1] was in the range of 50 to 1000 nM. Besides, the “Growth of lung tumor xenograft” value in assay [2] (18 mg/kg 2QD intra-peritoneally, 15 days) is “inhibits the growth”. The “Dose dependence of the tumor growth inhibition” value in assay [2] (NCI-H460 xenograft) was “dose-dependent”. For the same compound, the “Efficacy in reducing the tumour growth when combined with taxol” value in assay [2] (compound (01) 18 mg/kg 2QD plus taxol 8 mg/kg Q3D×5, intra-peritoneally) is listed as “enhanced”.
